One test deals with HCT-116. Put plainly: Antiproliferative activity against human HCT116 cells after 72 hrs by phosphatase assay. It is filed as functional, cell-based. The settings on record: HCT-116, 72 h.
A short description of test [1]: Cytotoxicity against human HCT116/VM46 cells assessed as reduction in cell viability after 72 hrs by phosphatase assay. It is filed as cell-based. The conditions noted are these: HCT-116/VM46, 72 h.
The test system of the next test is L1210. Put plainly: Antiproliferative activity against mouse L1210 cells after 72 hrs by phosphatase assay. It is filed as functional, cell-based. The settings on record: L1210, 72 h.

For 26 compounds, IC50 results are on record in ChEMBL document CHEMBL4017512 (J Med Chem, 2017).

Take `CC[C@]1(NC(=O)c2cccc3ccccc23)C[C@H]2CN(CCc3c([nH]c4ccccc34)[C@@](C(=O)OC)(c3cc4c(cc3OC)N(C)[C@H]3[C@@](O)(C(=O)OC)[C@H](OC(C)=O)[C@]5(CC)C=CCN6CC[C@]43[C@@H]65)C2)C1`: the IC50 in the test on HCT-116 turned out to be 0.065 µM; in test [1], 0.22 µM; in the test with L1210, 0.06 µM.

On to `CC[C@]1(NC(=O)c2ccc3scnc3c2)C[C@H]2CN(CCc3c([nH]c4ccccc34)[C@@](C(=O)OC)(c3cc4c(cc3OC)N(C)[C@H]3[C@@](O)(C(=O)OC)[C@H](OC(C)=O)[C@]5(CC)C=CCN6CC[C@]43[C@@H]65)C2)C1`, for which the IC50 with HCT-116 came to 0.0007 µM; in test [1] it was 0.025 µM; with L1210 it was 0.0006 µM.

For `CC[C@]1(NC(=O)c2cccnc2)C[C@H]2CN(CCc3c([nH]c4ccccc34)[C@@](C(=O)OC)(c3cc4c(cc3OC)N(C)[C@H]3[C@@](O)(C(=O)OC)[C@H](OC(C)=O)[C@]5(CC)C=CCN6CC[C@]43[C@@H]65)C2)C1`, the results for the IC50 (in the test with HCT-116; in test [1]; in the test on L1210) were 0.0006 µM, 0.05 µM and 0.0007 µM, respectively.

With `CC[C@]1(NC(=O)C2CCCCC2)C[C@H]2CN(CCc3c([nH]c4ccccc34)[C@@](C(=O)OC)(c3cc4c(cc3OC)N(C)[C@H]3[C@@](O)(C(=O)OC)[C@H](OC(C)=O)[C@]5(CC)C=CCN6CC[C@]43[C@@H]65)C2)C1`, the IC50 is 0.07 µM in the test on HCT-116, 0.76 µM in test [1] and 0.055 µM with L1210.

Consider `CC[C@]1(NC(=O)c2ccc(OC)cc2F)C[C@H]2CN(CCc3c([nH]c4ccccc34)[C@@](C(=O)OC)(c3cc4c(cc3OC)N(C)[C@H]3[C@@](O)(C(=O)OC)[C@H](OC(C)=O)[C@]5(CC)C=CCN6CC[C@]43[C@@H]65)C2)C1`, for which the IC50 came out at 0.0064 µM in the test with HCT-116, 0.07 µM in test [1] and 0.0062 µM with L1210.

As for `CC[C@]1(NC(=O)c2ccc3c(c2)CCN3C(=O)OC(C)(C)C)C[C@H]2CN(CCc3c([nH]c4ccccc34)[C@@](C(=O)OC)(c3cc4c(cc3OC)N(C)[C@H]3[C@@](O)(C(=O)OC)[C@H](OC(C)=O)[C@]5(CC)C=CCN6CC[C@]43[C@@H]65)C2)C1`, the IC50 with HCT-116 is 0.015 µM; in test [1], 0.09 µM; with L1210, 0.035 µM.

Take `CC[C@]1(NC(=O)c2cccc(N3CCOCC3)c2)C[C@H]2CN(CCc3c([nH]c4ccccc34)[C@@](C(=O)OC)(c3cc4c(cc3OC)N(C)[C@H]3[C@@](O)(C(=O)OC)[C@H](OC(C)=O)[C@]5(CC)C=CCN6CC[C@]43[C@@H]65)C2)C1`: the IC50 was 0.0028 µM in the test on HCT-116, 0.03 µM in test [1] and 0.0048 µM with L1210.

As for `CC[C@]1(NC(=O)C2CC2)C[C@H]2CN(CCc3c([nH]c4ccccc34)[C@@](C(=O)OC)(c3cc4c(cc3OC)N(C)[C@H]3[C@@](O)(C(=O)OC)[C@H](OC(C)=O)[C@]5(CC)C=CCN6CC[C@]43[C@@H]65)C2)C1`, the IC50 came out at 0.0061 µM in the test on HCT-116, 0.095 µM in test [1] and 0.0055 µM with L1210.

As to `CCCCCCCC(=O)N[C@@]1(CC)C[C@H]2CN(CCc3c([nH]c4ccccc34)[C@@](C(=O)OC)(c3cc4c(cc3OC)N(C)[C@H]3[C@@](O)(C(=O)OC)[C@H](OC(C)=O)[C@]5(CC)C=CCN6CC[C@]43[C@@H]65)C2)C1`, the figures for the IC50 (in the test with HCT-116; in test [1]; in the test with L1210) were 0.06 µM, 0.42 µM and 0.05 µM, respectively.

For `CC[C@]1(NS(=O)(=O)c2c(C)cc(C)cc2C)C[C@H]2CN(CCc3c([nH]c4ccccc34)[C@@](C(=O)OC)(c3cc4c(cc3OC)N(C)[C@H]3[C@@](O)(C(=O)OC)[C@H](OC(C)=O)[C@]5(CC)C=CCN6CC[C@]43[C@@H]65)C2)C1`, the IC50 with HCT-116 amounted to 0.58 µM; in test [1] it was 0.71 µM; in the test on L1210, 0.5 µM.

Take `CC[C@]1(NC(=O)/C=C/c2ccsc2)C[C@H]2CN(CCc3c([nH]c4ccccc34)[C@@](C(=O)OC)(c3cc4c(cc3OC)N(C)[C@H]3[C@@](O)(C(=O)OC)[C@H](OC(C)=O)[C@]5(CC)C=CCN6CC[C@]43[C@@H]65)C2)C1`: the figures for the IC50 (in the test with HCT-116; in test [1]; with L1210) were 0.0006 µM, 0.02 µM and 0.0005 µM, respectively.

On to `CC[C@]1(NS(=O)(=O)c2ccccc2)C[C@H]2CN(CCc3c([nH]c4ccccc34)[C@@](C(=O)OC)(c3cc4c(cc3OC)N(C)[C@H]3[C@@](O)(C(=O)OC)[C@H](OC(C)=O)[C@]5(CC)C=CCN6CC[C@]43[C@@H]65)C2)C1`, for which the IC50 in the test on HCT-116 turned out to be 0.05 µM; in test [1], 0.68 µM; in the test on L1210, 0.045 µM.

Consider `CC[C@]1(NC(=O)/C=C/c2cccnc2)C[C@H]2CN(CCc3c([nH]c4ccccc34)[C@@](C(=O)OC)(c3cc4c(cc3OC)N(C)[C@H]3[C@@](O)(C(=O)OC)[C@H](OC(C)=O)[C@]5(CC)C=CCN6CC[C@]43[C@@H]65)C2)C1`, for which the IC50 stood at 0.0057 µM in the test with HCT-116, 0.32 µM in test [1] and 0.0059 µM in the test with L1210.

For the compound `CC[C@]1(NC(=O)c2ccc3cc(OC)ccc3c2)C[C@H]2CN(CCc3c([nH]c4ccccc34)[C@@](C(=O)OC)(c3cc4c(cc3OC)N(C)[C@H]3[C@@](O)(C(=O)OC)[C@H](OC(C)=O)[C@]5(CC)C=CCN6CC[C@]43[C@@H]65)C2)C1`, the IC50 was 0.0035 µM in the test on HCT-116, 0.02 µM in test [1] and 0.0025 µM with L1210.

For `CC[C@]1(NC(=O)/C=C/c2ccccc2)C[C@H]2CN(CCc3c([nH]c4ccccc34)[C@@](C(=O)OC)(c3cc4c(cc3OC)N(C)[C@H]3[C@@](O)(C(=O)OC)[C@H](OC(C)=O)[C@]5(CC)C=CCN6CC[C@]43[C@@H]65)C2)C1`, the IC50 with HCT-116 was found to be 0.0009 µM; in test [1], 0.02 µM; in the test with L1210, 0.0008 µM.

For the compound `CC[C@]1(NC(=O)c2ccc(NC(=O)OC(C)(C)C)c(C)c2)C[C@H]2CN(CCc3c([nH]c4ccccc34)[C@@](C(=O)OC)(c3cc4c(cc3OC)N(C)[C@H]3[C@@](O)(C(=O)OC)[C@H](OC(C)=O)[C@]5(CC)C=CCN6CC[C@]43[C@@H]65)C2)C1`, the IC50 in the test on HCT-116 was 0.0058 µM; in test [1] it was 0.03 µM; with L1210 it was 0.0056 µM.

For the compound `CC[C@]1(NC(=O)c2ccc(Br)c(Br)c2)C[C@H]2CN(CCc3c([nH]c4ccccc34)[C@@](C(=O)OC)(c3cc4c(cc3OC)N(C)[C@H]3[C@@](O)(C(=O)OC)[C@H](OC(C)=O)[C@]5(CC)C=CCN6CC[C@]43[C@@H]65)C2)C1`, the IC50 with HCT-116 was determined as 0.04 µM; in test [1], 0.08 µM; in the test with L1210, 0.06 µM.

For the compound `CC[C@]1(NC(=O)c2ccccc2OC)C[C@H]2CN(CCc3c([nH]c4ccccc34)[C@@](C(=O)OC)(c3cc4c(cc3OC)N(C)[C@H]3[C@@](O)(C(=O)OC)[C@H](OC(C)=O)[C@]5(CC)C=CCN6CC[C@]43[C@@H]65)C2)C1`, the IC50 stood at 0.01 µM in the test with HCT-116, 0.1 µM in test [1] and 0.03 µM in the test on L1210.

As to `CC[C@]1(NC(=O)c2ccc(C(C)C)cc2)C[C@H]2CN(CCc3c([nH]c4ccccc34)[C@@](C(=O)OC)(c3cc4c(cc3OC)N(C)[C@H]3[C@@](O)(C(=O)OC)[C@H](OC(C)=O)[C@]5(CC)C=CCN6CC[C@]43[C@@H]65)C2)C1`, the results for the IC50 (in the test on HCT-116; in test [1]; in the test on L1210) were 0.0064 µM, 0.013 µM and 0.0054 µM, respectively.

Regarding `CC[C@]1(NC(=O)c2ccc(C)c(NC(=O)OC(C)(C)C)c2)C[C@H]2CN(CCc3c([nH]c4ccccc34)[C@@](C(=O)OC)(c3cc4c(cc3OC)N(C)[C@H]3[C@@](O)(C(=O)OC)[C@H](OC(C)=O)[C@]5(CC)C=CCN6CC[C@]43[C@@H]65)C2)C1`, the IC50 came to 0.0071 µM in the test on HCT-116, 0.09 µM in test [1] and 0.006 µM in the test with L1210.

Consider `CC[C@]1(NC(=O)c2ccc(OC(C)(C)C)cc2)C[C@H]2CN(CCc3c([nH]c4ccccc34)[C@@](C(=O)OC)(c3cc4c(cc3OC)N(C)[C@H]3[C@@](O)(C(=O)OC)[C@H](OC(C)=O)[C@]5(CC)C=CCN6CC[C@]43[C@@H]65)C2)C1`, for which the figures for the IC50 (with HCT-116; in test [1]; in the test on L1210) were 0.0006 µM, 0.0068 µM and 0.0006 µM, respectively.

As for `CC[C@]1(NC(=O)c2ccc3occc3c2)C[C@H]2CN(CCc3c([nH]c4ccccc34)[C@@](C(=O)OC)(c3cc4c(cc3OC)N(C)[C@H]3[C@@](O)(C(=O)OC)[C@H](OC(C)=O)[C@]5(CC)C=CCN6CC[C@]43[C@@H]65)C2)C1`, the results for the IC50 (in the test with HCT-116; in test [1]; in the test on L1210) were 0.0038 µM, 0.025 µM and 0.005 µM, respectively.

As to `CCOc1ccc(C(=O)N[C@@]2(CC)C[C@H]3CN(CCc4c([nH]c5ccccc45)[C@@](C(=O)OC)(c4cc5c(cc4OC)N(C)[C@H]4[C@@](O)(C(=O)OC)[C@H](OC(C)=O)[C@]6(CC)C=CCN7CC[C@]54[C@@H]76)C3)C2)cc1Cl`, the IC50 with HCT-116 was found to be 0.0061 µM; in test [1], 0.04 µM; with L1210 it was 0.0042 µM.

`CC[C@]1(NC(=O)c2ccc3cccnc3c2)C[C@H]2CN(CCc3c([nH]c4ccccc34)[C@@](C(=O)OC)(c3cc4c(cc3OC)N(C)[C@H]3[C@@](O)(C(=O)OC)[C@H](OC(C)=O)[C@]5(CC)C=CCN6CC[C@]43[C@@H]65)C2)C1`: the IC50 with HCT-116 came out at 0.0007 µM; in test [1] it was 0.0082 µM; in the test with L1210, 0.0006 µM.

As to `CC[C@]1(NC(=O)c2ccc3c(c2)CCN3)C[C@H]2CN(CCc3c([nH]c4ccccc34)[C@@](C(=O)OC)(c3cc4c(cc3OC)N(C)[C@H]3[C@@](O)(C(=O)OC)[C@H](OC(C)=O)[C@]5(CC)C=CCN6CC[C@]43[C@@H]65)C2)C1`, the IC50 in the test on HCT-116 was found to be 0.0067 µM; in test [1], 0.06 µM; in the test on L1210 it was 0.0051 µM.

Consider `CC[C@]1(NC(=O)/C=C/c2ccco2)C[C@H]2CN(CCc3c([nH]c4ccccc34)[C@@](C(=O)OC)(c3cc4c(cc3OC)N(C)[C@H]3[C@@](O)(C(=O)OC)[C@H](OC(C)=O)[C@]5(CC)C=CCN6CC[C@]43[C@@H]65)C2)C1`, for which the IC50 in the test on HCT-116 stood at 0.0013 µM; in test [1], 0.03 µM; in the test with L1210 it was 0.0013 µM.

As usually defined, the IC50 is the midpoint of a concentration-inhibition curve.
